Non-standard residues stand in square brackets, D forms with d.
Experiments:
[1] = target: T1, murine E^d MHC class II allele (Mus musculus, UniProt P01904+P01915); assay: AE101 series peptide prepulse assay, E^d allele; type: cell-based; conditions: Table 35; AE101 series peptide prepulse 64 μM; antigenic peptide 0.3 μM; supernatant dilution 1:4
T1 sequence (P01904 26-255): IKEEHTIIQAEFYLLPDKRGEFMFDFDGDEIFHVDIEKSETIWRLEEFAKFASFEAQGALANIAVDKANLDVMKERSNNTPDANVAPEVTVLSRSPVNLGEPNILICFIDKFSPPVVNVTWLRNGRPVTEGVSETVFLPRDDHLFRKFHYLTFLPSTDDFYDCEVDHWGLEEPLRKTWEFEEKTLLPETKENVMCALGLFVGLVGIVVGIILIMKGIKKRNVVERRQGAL
T1 sequence (P01915 27-264 limits assumed): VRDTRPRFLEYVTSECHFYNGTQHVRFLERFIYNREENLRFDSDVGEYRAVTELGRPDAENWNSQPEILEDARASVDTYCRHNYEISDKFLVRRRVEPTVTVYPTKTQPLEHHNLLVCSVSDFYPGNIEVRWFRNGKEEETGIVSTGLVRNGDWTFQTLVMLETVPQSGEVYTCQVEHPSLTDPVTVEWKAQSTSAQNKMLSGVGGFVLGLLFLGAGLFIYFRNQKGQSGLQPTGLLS
Method: Table 35: Activities of multiple substitution analogs of AE235, targeting the E^k and E^d allele, in an AE101 series peptide prepulse assay. In this assay the concentration of AE101 series peptides used during the prepulse was 64 μM. The concentrations of antigenic peptides were 0.3 μM for Ed and 0.4 μM for E^k. The supernatant dilutions taken into the HT-2 cell assay was 1:4 for E and 1:2 for E^k. The AE381 peptide is a head-to-tail cyclization: the amino terminal amino group is coupled through an amide linkage to the carboxyl terminal group. The AE 382 peptide is a side-to-tail cyclization: the epsilon amino group of Lys^4 is coupled through an amide linkage to the carboxyl terminal group.
AE101 series peptide prepulse assays were carried out in the E^d and E^k systems as described for simultaneous competition assays with the following modifications. Fixed APC were first incubated for 6 h at 1×10^6DMEM-5% FCS with 64 μM of each AE101 series peptide or with PBS. The APC were then washed four times with ten volumes of DMEM-5% FCS, and were cocultured with T hybridoma cells and the indicated submaximal doses of antigenic peptides used in the simultaneous competition assays. The baseline T cell response was measured by culturing T hybridoma cells with antigenic peptide and PBS-pretreated APC.

HLA-DR1 molecules [2] = assay: exchange of biotinylated hMBP(90-102) into antigenic peptide-loaded HLA-DR1 (assay III); type: binding, human; conditions: Table 38; HLA-DR1 preloaded with unlabeled hMBP(90-102) 50 μM; exchange with biotin-labeled hMBP(90-102) 50 μM, 37° C., 1 h; fraction of positive control o.d.; no enhancement = 0.08
HLA-DR1 molecules [3] = target: T2, HLA-DR1 molecules (Homo sapiens, UniProt P01903+P01911, A100R/D57E/F55L/F60I/F76Y/I96L/L162R/M171V/P40L/Q125E/R42F/V115G/Y59C); assay: binding of biotin-labeled hMBP(90-102) to "empty" HLA-DR1 (assay IV); conditions: Table 39; AE101 series compound 64 μM; biotin-labeled hMBP(90-102) 50 μM, 37° C., 1 h; no enhancement = 1
T2 construct: The HLA-DR alpha gene was truncated after Asn^192 to remove transmembranal and cytoplasmic regions from the protein product; A gene coding for the HLA-DR1 beta chain was truncated after position Lys^198, again to delete the transmembranal region; made in house; host or cells: insect cell line printed as HS / H5 (Invitrogen), co-infected with two baculoviruses; concentrated culture supernatant captured on 12CA5 antibody

HLA-DR1 molecules [4] = assay: release of biotin-labeled hMBP(90-102) from HLA-DR1 in the presence of unlabeled hMBP (assay II); type: binding, human; conditions: for Relative Release, With unlabeled hMBP(90-102), 1 μM / Relative Release, With unlabeled hMBP(90-102), 64 μM: Table 37, unlabeled hMBP(90-102) 250 μM; for Relative Release, With unlabeled hMBP(90-102), 1 μM: AE101 series compound 1 μM; for Relative Release, With unlabeled hMBP(90-102), 64 μM: AE101 series compound 64 μM

| Substance | T cell response relative to baseline with PBS-pretreated APC (NONE = 1.0), E^d [1] | Relative Binding (HLA-DR1 molecules [2]) | Relative Enhancement (HLA-DR1 molecules [3]) | Relative Release, With unlabeled hMBP(90-102), 1 μM (HLA-DR1 molecules [4]) | Relative Release, With unlabeled hMBP(90-102), 64 μM (HLA-DR1 molecules [4]) | release of antigenic peptide from HLA-DR1 in presence of second antigenic peptide, in words (HLA-DR1 molecules [4]; excess second antigenic peptide) |
| --- | --- | --- | --- | --- | --- | --- |
| Ac-LRMK D PK-NH2 (Ac-LRMKDPK-NH2) [AE230] | 0.8 |  |  |  |  |  |
| Ac-YRMK-NH2 [AE117] | 4.4 |  |  |  |  |  |
| YRMKLPKSAKPVSQMR [AE101] |  | 0.31 | 2.66 |  |  |  |
| Ac-YRMKL hydrP KSAK-NH2 (Ac-YRMKL[hydrP]KSAK-NH2) [AE143] |  |  |  | 0.35 | 0.21 |  |
| Ac-LR L KLPK-NH2 (Ac-LRLKLPK-NH2; not fully specified; printed as Ac-LR L KLPK-NH2) [AE206] | 5.0 | −0.13 | 2.57 | 0.03 | −0.29 |  |
| Ac-LRMK Y PK-NH2 (Ac-LRMKYPK-NH2; not fully specified; printed as Ac-LRMK Y PK-NH2) [AE235] | 15.6 | 0.15 | 0.61 | 0.48 | 0.6 |  |
| Ac-LRMKLPK-NH2 [AE114] | 6.0 |  |  |  |  | can catalyze the release of antigenic peptide from the antigenic peptide binding site only in the presence of excess quantities of a second antigenic peptide |
